This note sets out measurements from US20150133426A1, “SUBSTITUTED PYRROLOPYRIMIDINES” (BAYER PHARMA AKTIENGESELLSCHAFT, priority 2012, published 2015).

The structures appear in SMILES notation.

Broadly, the IC50 is the concentration that inhibits the measured activity by half. High values mean a need for much substance, low ones inhibition by little substance.

This experiment deals with T1, human full-length MKNK1 (Homo sapiens, UniProt Q9BUB5, T385D).
T1 construct: purchased Carna Biosciences 02-145; host or cells: insect cells, baculovirus expression system
T1 sequence (Q9BUB5 1-424 isoform Q9BUB5-2 T344D): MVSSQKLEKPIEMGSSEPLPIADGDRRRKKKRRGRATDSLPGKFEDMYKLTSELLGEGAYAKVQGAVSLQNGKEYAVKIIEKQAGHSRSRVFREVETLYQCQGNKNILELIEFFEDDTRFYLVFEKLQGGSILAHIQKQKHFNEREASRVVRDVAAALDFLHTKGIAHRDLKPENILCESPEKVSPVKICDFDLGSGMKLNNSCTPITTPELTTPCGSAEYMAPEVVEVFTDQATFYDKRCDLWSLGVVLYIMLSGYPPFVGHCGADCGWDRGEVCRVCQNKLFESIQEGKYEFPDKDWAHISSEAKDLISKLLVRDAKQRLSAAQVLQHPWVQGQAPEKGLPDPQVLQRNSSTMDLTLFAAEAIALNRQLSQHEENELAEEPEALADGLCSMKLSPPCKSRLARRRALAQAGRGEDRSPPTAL
In words: MKNK1 kinase high ATP assay (TR-FRET). In kind it is biochemical. As to conditions: high ATP (2 mM), 15 min preincubation with enzyme, GST-MKNK1 (T344D). As to the method:
MKNK1-inhibitory activity at high ATP of compounds of the present invention after their preincubation with MKNK1 was quantified employing the TR-FRET-based MKNK1 high ATP assay as described in the following paragraphs.
A recombinant fusion protein of Glutathione-S-Transferase (GST, N-terminally) and human full-length MKNK1 (amino acids 1-424 and T344D of accession number BAA 19885.1), expressed in insect cells using baculovirus expression system and purified via glutathione sepharose affinity chromatography, was purchased from Carna Biosciences (product no 02-145) and used as enzyme. As substrate for the kinase reaction the biotinylated peptide biotin-Ahx-IKKRKLTRRKSLKG (C-terminus in amide form) was used, which can be purchased e.g. from the company Biosyntan (Berlin-Buch, Germany).
For the assay 50 nL of a 100fold concentrated solution of the test compound in DMSO was pipetted into a black low volume 384well microtiter plate (Greiner Bio-One, Frickenhausen, Germany), 2 μL of a solution of MKNK1 in aqueous assay buffer [50 mM HEPES pH 7.5, 5 mM MgCl2, 1.0 mM dithiothreitol, 0.005% (v/v) Nonidet-P40 (Sigma)] was added and the mixture was incubated for 15 min at 22° C. to allow pre-binding of the test compounds to the enzyme before the start of the kinase reaction. Then the kinase reaction was started by the addition of 3 μL of a solution of adenosine-tri-phosphate (ATP, 3.3 mM=>final conc. in the 5 μL assay volume is 2 mM) and substrate (0.1 μM=>final conc. in the 5 μL assay volume is 0.06 μM) in assay buffer and the resulting mixture was incubated for a reaction time of 30 min at 22° C. The concentration of MKNK1 was adjusted depending of the activity of the enzyme lot and was chosen appropriate to have the assay in the linear range, typical concentrations were in the range of 0.003 μg/mL. The reaction was stopped by the addition of 5 μL of a solution of TR-FRET detection reagents (5 nM streptavidine-XL665 [Cisbio Bioassays, Codolet, France] and 1 nM anti-ribosomal protein […] (pSer236)-antibody from Invitrogen [#44921G] and 1 nM LANCE EU-W1024 labeled ProteinG [Perkin-Elmer, product no. AD0071]) in an aqueous EDTA-solution (100 mM EDTA, 0.1% (w/v) bovine serum albumin in 50 mM HEPES pH 7.5).
The resulting mixture was incubated for 1 h at 22° C. to allow the formation of complex between the phosphorylated biotinylated peptide and the detection reagents. Subsequently the amount of phosphorylated substrate was evaluated by measurement of the resonance energy transfer from the Eu-chelate to the streptavidine-XL. Therefore, the fluorescence emissions at 620 nm and 665 nm after excitation at 350 nm were measured in a TR-FRET reader, e.g. a Rubystar (BMG Labtechnologies, Offenburg, Germany) or a Viewlux (Perkin-Elmer). The ratio of the emissions at 665 nm and at […] was taken as the measure for the amount of phosphorylated substrate. The data were normalised (enzyme reaction without inhibitor=0% inhibition, all other assay components but no enzyme=100% inhibition).
A general note: TR-FRET usually uses a lanthanide donor and a delayed reading to cut background.
As for `CS(=O)(=O)CCCNC(=O)C1CCc2[nH]c3ncnc(Oc4ccc5[nH]ncc5c4)c3c2C1` (racemic) [Example 56, (RS)-4-(1H-Indazol-5-yloxy)-N-[3-(methylsulfonyl)propyl]-6,7,8,9-tetrahydro-5H-pyrimido[4,5-b]indole-6-carboxamide], the IC50 amounted to 0.226 µM.
With `CS(=O)(=O)CCCNC(=O)C1CCc2[nH]c3ncnc(Nc4cccc5c4CCCC5)c3c2C1` (racemic) [Example 58, (RS)—N-[3-(Methylsulfonyl)propyl]-4-(5,6,7,8-tetrahydronaphthalen-1-ylamino)-6,7,8,9-tetrahydro-5H-pyrimido[4,5-b]indole-6-carboxamide] the figure was 1.17 µM; with `Cc1ccc(Nc2ncnc3[nH]c4c(c23)CC(C(=O)NCCCS(C)(=O)=O)CC4)cc1S(=O)(=O)O` (racemic) [Example 59, (RS)-2-Methyl-5-[(6-{[3-(methylsulfonyl)propyl]carbamoyl}-6,7,8,9-tetrahydro-5H-pyrimido[4,5-b]indol-4-yl)amino]benzenesulfonic acid], 0.124 µM; with `CS(=O)(=O)CCCNC(=O)C1CCc2[nH]c3ncnc(Nc4cccc5c4OC(F)(F)O5)c3c2C1` (racemic) [Example 60, (RS)-4-[(2,2-Difluoro-1,3-benzodioxol-4-yl)amino]-N-[3-(methylsulfonyl)propyl]-6,7,8,9-tetrahydro-5H-pyrimido[4,5-b]indole-6-carboxamide], 1.36 µM.
In turn, `CS(=O)(=O)CCCNC(=O)C1CCc2[nH]c3ncnc(Nc4cc5cn[nH]c5cc4F)c3c2C1` (racemic) [Example 61, (RS)-4-[(6-Fluoro-1H-indazol-5-yl)amino]-N-[3-(methylsulfonyl)propyl]-6,7,8,9-tetrahydro-5H-pyrimido[4,5-b]indole-6-carboxamide] returned an IC50 of 0.017 µM.
Turning to `CS(=O)(=O)CCCNC(=O)C1CCc2[nH]c3ncnc(Nc4cc(OC(F)(F)F)ccc4F)c3c2C1` (racemic) [Example 62, (RS)-4-{[2-Fluoro-5-(trifluoromethoxy)phenyl]amino}-N-[3-(methylsulfonyl)propyl]-6,7,8,9-tetrahydro-5H-pyrimido[4,5-b]indole-6-carboxamide], 0.677 µM corresponded to half-maximal inhibition (IC50).
With `COP(C)(=O)c1ccc(Nc2ncnc3[nH]c4c(c23)CC(C(=O)NCCCS(C)(=O)=O)CC4)cc1` (racemic) [Example 64, (RS)-Methyl methyl{4-[(6-{[3-(methylsulfonyl)propyl]carbamoyl}-6,7,8,9-tetrahydro-5H-pyrimido[4,5-b]indol-4-yl)amino]phenyl}phosphinate] the figure was 19.7 µM; with `CSc1cc2c(cc1Nc1ncnc3[nH]c4c(c13)CC(C(=O)NCCCS(C)(=O)=O)CC4)OCCO2` (racemic) [Example 65, (RS)-4-{[7-(Methylsulfanyl)-2,3-dihydro-1,4-benzodioxin-6-yl]amino}-N-[3-(methylsulfonyl)propyl]-6,7,8,9-tetrahydro-5H-pyrimido[4,5-b]indole-6-carboxamide], 13.3 µM; with `COc1ccc(C(F)(F)F)cc1Nc1ncnc2[nH]c3c(c12)CC(C(=O)NCCCS(C)(=O)=O)CC3` (racemic) [Example 67, (RS)-4-{[2-Methoxy-5-(trifluoromethyl)phenyl]amino}-N-[3-(methylsulfonyl)propyl]-6,7,8,9-tetrahydro-5H-pyrimido[4,5-b]indole-6-carboxamide], 0.028 µM.
Take `COc1cc2nc(C)sc2cc1Nc1ncnc2[nH]c3c(c12)CC(C(=O)NCCCS(C)(=O)=O)CC3` (racemic) [Example 68, (RS)-4-[(5-Methoxy-2-methyl-1,3-benzothiazol-6-yl)amino]-N-[3-(methylsulfonyl)propyl]-6,7,8,9-tetrahydro-5H-pyrimido[4,5-b]indole-6-carboxamide]: 6.16 µM corresponded to half-maximal inhibition (IC50).
In the case of `COc1cc(N2CCOCC2)ccc1Nc1ncnc2[nH]c3c(c12)CC(C(=O)NCCCS(C)(=O)=O)CC3` (racemic) [Example 71, (RS)-4-{[2-Methoxy-4-(morpholin-4-yl)phenyl]amino}-N-[3-(methylsulfonyl)propyl]-6,7,8,9-tetrahydro-5H-pyrimido[4,5-b]indole-6-carboxamide], inhibition was half-maximal at 10.8 µM (IC50).
Take `COc1ccc(Nc2ncnc3[nH]c4c(c23)CC(C(=O)NCCCS(C)(=O)=O)CC4)c(OC)c1` (racemic) [Example 73, (RS)-4-[(2,4-Dimethoxyphenyl)amino]-N-[3-(methylsulfonyl)propyl]-6,7,8,9-tetrahydro-5H-pyrimido[4,5-b]indole-6-carboxamide]: 4.14 µM corresponded to half-maximal inhibition (IC50). Against the preceding compound, the IC50 is about 2.6-fold lower.
The compound `COc1cccc(Nc2ncnc3[nH]c4c(c23)CC(C(=O)NCCCS(C)(=O)=O)CC4)c1OC` (racemic) [Example 74, (RS)-4-[(2,3-Dimethoxyphenyl)amino]-N-[3-(methylsulfonyl)propyl]-6,7,8,9-tetrahydro-5H-pyrimido[4,5-b]indole-6-carboxamide] returned an IC50 of 1.16 µM. Against the preceding compound, the IC50 is about 3.6-fold lower.
Regarding `COc1cccc(C)c1Nc1ncnc2[nH]c3c(c12)CC(C(=O)NCCCS(C)(=O)=O)CC3` (racemic) [Example 75, (RS)-4-[(2-Methoxy-6-methylphenyl)amino]-N-[3-(methylsulfonyl)propyl]-6,7,8,9-tetrahydro-5H-pyrimido[4,5-b]indole-6-carboxamide], the IC50 was 7.67 µM.
With `CS(=O)(=O)CCCNC(=O)C1CCc2[nH]c3ncnc(Nc4cccc(F)c4F)c3c2C1` (racemic) [Example 77, (RS)-4-[(2,3-Difluorophenyl)amino]-N-[3-(methylsulfonyl)propyl]-6,7,8,9-tetrahydro-5H-pyrimido[4,5-b]indole-6-carboxamide] the figure was 3.63 µM; with `CS(=O)(=O)CCCNC(=O)C1CCc2[nH]c3ncnc(Nc4ccccc4OC4CCCC4)c3c2C1` (racemic) [Example 78, (RS)-4-{[2-(Cyclopentyloxy)phenyl]amino}-N-[3-(methylsulfonyl)propyl]-6,7,8,9-tetrahydro-5H-pyrimido[4,5-b]indole-6-carboxamide], 0.024 µM.
The value for `CS(=O)(=O)CCCNC(=O)C1CCc2[nH]c3ncnc(Nc4ccccc4OC4CCOCC4)c3c2C1` (racemic) [Example 79, (RS)—N-[3-(Methylsulfonyl)propyl]-4-{[2-(tetrahydro-2H-pyran-4-yloxy)phenyl]amino}-6,7,8,9-tetrahydro-5H-pyrimido[4,5-b]indole-6-carboxamide] was 0.058 µM; that for `CC1(C)Cc2cccc(Nc3ncnc4[nH]c5c(c34)CC(C(=O)NCCCS(C)(=O)=O)CC5)c2O1` (racemic) [Example 80, (RS)-4-[(2,2-Dimethyl-2,3-dihydro-1-benzofuran-7-yl)amino]-N-[3-(methylsulfonyl)propyl]-6,7,8,9-tetrahydro-5H-pyrimido[4,5-b]indole-6-carboxamide] was 0.494 µM; that for `CS(=O)(=O)CCCNC(=O)C1CCc2[nH]c3ncnc(Nc4cccc5c4CNC5=O)c3c2C1` (racemic) [Example 81, (RS)—N-[3-(Methylsulfonyl)propyl]-4-[(1-oxo-2,3-dihydro-1H-isoindol-4-yl)amino]-6,7,8,9-tetrahydro-5H-pyrimido[4,5-b]indole-6-carboxamide] was 1.27 µM.
In turn, `CS(=O)(=O)CCCNC(=O)C1CCc2[nH]c3ncnc(Nc4ccc(F)c5[nH]c(=O)ccc45)c3c2C1` (racemic) [Example 82, (RS)-4-[(8-Fluoro-2-oxo-1,2-dihydroquinolin-5-yl)amino]-N-[3-(methylsulfonyl)propyl]-6,7,8,9-tetrahydro-5H-pyrimido[4,5-b]indole-6-carboxamide] showed an IC50 of 10.5 µM.
